Results taken from patent publication US20060069132A1, “Azolecarboxamide herbicides” (priority 2004, published 2006).

Key:
[1] = test system: barnyardgrass; assay: Test A pre-/postemergence herbicide test; assay type: in vivo, Echinochloa crus-galli
Outline: (§1)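 Visual injury rating on a 0–100 scale (0 no effect, 100 complete control) versus untreated controls, about ten days after treatment in greenhouse. Pre: directed soil spray onto seeded sandy loam. Post: spray to runoff on plants 2–10 cm tall at one- to two-leaf stage.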

[2] = test system: large crabgrass; assay: Test A pre-/postemergence herbicide test; assay type: in vivo, Digitaria sanguinalis
Outline: as §1

[3] = test system: giant foxtail; assay: Test A pre-/postemergence herbicide test; assay type: in vivo, Setaria faberi
Outline: as §1

[4] = test system: morningglory; assay: Test A pre-/postemergence herbicide test; assay type: in vivo, Ipomoea spp.
Outline: as §1

[5] = test system: redroot pigweed; assay: Test A pre-/postemergence herbicide test; assay type: in vivo, Amaranthus retroflexus
Outline: as §1

[6] = test system: velvetleaf; assay: Test A pre-/postemergence herbicide test; assay type: in vivo, Abutilon theophrasti
Outline: as §1

[7] = test system: barnyardgrass; assay: Test B pre-/postemergence herbicide test; assay type: in vivo, Echinochloa crus-galli; settings: for Plant response rating, Barnyardgrass: preemergence; for Barnyardgrass plant response rating: postemergence, visual rating, scale 0 (no effect) to 100 (complete control)
Outline: (§2)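 Visual rating, 0 (no effect) to 100 (complete control), versus untreated controls after 13–15 d in greenhouse. Pre- and postemergence applications (postemergence plants 2–18 cm, 1–4 leaves); flooded paddy arm at 2-leaf stage. Compounds in non-phytotoxic solvent plus surfactant.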

[8] = test system: Surinam grass; assay: Test B pre-/postemergence herbicide test; assay type: in vivo, Urochloa decumbens; settings: for Plant response rating, Surinam Grass: preemergence; for Surinam Grass plant response rating: postemergence, visual rating, scale 0 (no effect) to 100 (complete control)
Outline: (§3)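 Test chemicals in a non-phytotoxic solvent mixture with surfactant were applied preemergence to seeded species and postemergence to plants 2-18 cm tall (1- to 4-leaf stage); rice and barnyardgrass were also tested in a flooded paddy at the 2-leaf stage. Visual rating versus controls after 13-15 days in greenhouse, scale 0 (no effect) to 100 (complete control).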

[9] = test system: cocklebur; assay: Test B pre-/postemergence herbicide test; assay type: in vivo, Xanthium strumarium; settings: for Plant response rating, Cocklebur: preemergence; for Cocklebur plant response rating: postemergence, visual rating, scale 0 (no effect) to 100 (complete control)
Outline: as §2

[10] = test system: corn; assay: Test B pre-/postemergence herbicide test; assay type: in vivo, Zea mays; settings: for Plant response rating, Corn: preemergence; for Corn plant response rating: postemergence, visual rating, scale 0 (no effect) to 100 (complete control)
Outline: as §3

[11] = test system: large crabgrass; assay: Test B pre-/postemergence herbicide test; assay type: in vivo, Digitaria sanguinalis; settings: for Plant response rating, Crabgrass, Large: preemergence; for Crabgrass, Large plant response rating: postemergence, visual rating, scale 0 (no effect) to 100 (complete control)
Outline: as §3

[12] = test system: giant foxtail; assay: Test B pre-/postemergence herbicide test; assay type: in vivo, Setaria faberi; settings: for Plant response rating, Foxtail, Giant: preemergence; for Foxtail, Giant plant response rating: postemergence, visual rating, scale 0 (no effect) to 100 (complete control)
Outline: as §3

[13] = test system: lambsquarters; assay: Test B pre-/postemergence herbicide test; assay type: in vivo, Chenopodium album; settings: for Plant response rating, Lambsquarters: preemergence; for Lambsquarters plant response rating: postemergence, visual rating, scale 0 (no effect) to 100 (complete control)
Outline: as §3

[14] = test system: morningglory; assay: Test B pre-/postemergence herbicide test; assay type: in vivo, Ipomoea coccinea; settings: for Morningglory plant response rating: postemergence, visual rating, scale 0 (no effect) to 100 (complete control)
Outline: as §2

[15] = test system: pigweed; assay: Test B pre-/postemergence herbicide test; assay type: in vivo, Amaranthus retroflexus; settings: for Plant response rating, Pigweed: preemergence; for Pigweed plant response rating: postemergence, visual rating, scale 0 (no effect) to 100 (complete control)
Outline: as §3

[16] = test system: rice; assay: Test B pre-/postemergence herbicide test; assay type: in vivo, Oryza sativa; settings: 500 g ai/ha; visual rating 0-100, 0 no effect, 100 complete control; preemergence
Outline: as §3

[17] = test system: velvetleaf; assay: Test B pre-/postemergence herbicide test; assay type: in vivo, Abutilon theophrasti; settings: for Plant response rating, Velvetleaf: preemergence; for Velvetleaf plant response rating: postemergence, visual rating, scale 0 (no effect) to 100 (complete control)
Outline: as §3

[18] = test system: blackgrass; assay: Test B postemergence herbicide test; assay type: in vivo, Alopecurus myosuroides; settings: postemergence, visual rating, scale 0 (no effect) to 100 (complete control)
Outline: (§4)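 Visual ratings, 0 (no effect) to 100 (complete control), made versus controls after 13–15 d greenhouse. Paddy plants treated at 2-leaf stage; postemergence plants at 1- to 4-leaf stage, 2–18 cm tall.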

[19] = test system: wheat; assay: Test B postemergence herbicide test; assay type: in vivo, Triticum aestivum; set-up: key to Wheat plant response rating: 0 = no effect, 100 = complete control; settings: postemergence, visual rating, scale 0 (no effect) to 100 (complete control)
Outline: (§5)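 Plants grow to 1- to 4-leaf stage (2–18 cm) for postemergence spraying, or to 2-leaf stage for the paddy test. Formulated compound is applied. Greenhouse holding lasts 13–15 days. Response is scored visually relative to controls, 0 no effect to 100 complete control; a dash means no result.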

[20] = test system: wild oat; assay: Test B postemergence herbicide test; assay type: in vivo, Avena fatua; settings: postemergence, visual rating, scale 0 (no effect) to 100 (complete control)
Outline: as §5

[21] = test system: rice; assay: Test B flooded paddy test; assay type: in vivo, Oryza sativa; settings: 1000 g ai/ha, visual rating, scale 0 to 100 (0 no effect, 100 complete control), 13 to 15 days
Outline: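 Paddy species grown to the 2-leaf stage under flooding; blackgrass sprayed postemergence at 2–18 cm (1- to 4-leaf stage). Plants kept in a greenhouse for 13 to 15 days, then visually rated against controls on 0 (no effect) to 100 (complete control).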

[22] = test system: small flower umbrella sedge; assay: Test B flooded paddy test; assay type: in vivo, Cyperus difformis; settings: 1000 g ai/ha, visual rating, scale 0 to 100 (0 no effect, 100 complete control), 13 to 15 days
Outline: as §4

[23] = test system: ducksalad; assay: Test B flooded paddy test; assay type: in vivo, Heteranthera limosa; settings: 1000 g ai/ha, visual rating, scale 0 to 100 (0 no effect, 100 complete control), 13 to 15 days
Outline: as §4

[24] = test system: barnyardgrass; assay: Test B flooded paddy test; assay type: in vivo, Echinochloa crus-galli; settings: 1000 g ai/ha, visual rating, scale 0 to 100 (0 no effect, 100 complete control), 13 to 15 days
Outline: as §4

[25] = Postemergence, 250 g ai/ha, 0 to 100 scale, 0 no effect, 100 complete control
[26] = Postemergence, 1000 g ai/ha, 0 to 100 scale, 0 no effect, 100 complete control
[27] = Preemergence, 1000 g ai/ha, visual rating, 0 to 100 scale (0 no effect, 100 complete control)
[28] = preemergence, 250 g ai/ha, visual injury, 0 to 100 scale (0 no effect, 100 complete control)
[29] = 500 g ai/ha, visual rating 0-100, 0 no effect, 100 complete control
[30] = 125 g ai/ha, 0 to 100 scale, 0 is no effect, 100 is complete control

In the case of `CCn1nc(C(C)(C)C)cc1C(=O)Nc1cccc([S+]([O-])C(F)(F)F)c1` (centres unmarked) [Compound 135], the “Barnyardgrass plant response rating” value [1, 25] is reported as 30, the “Plant response rating, Barnyardgrass” value [1, 26] is reported as 50 and the “Barnyardgrass plant response rating” value [1, 27] is reported as 65. For the same compound, the “Barnyardgrass plant response rating” value [1, 28] was 35, the “Crabgrass, Large plant response rating” value [2, 25] was 20 and the “Plant response rating, Crabgrass, Large” value [2, 26] was 30. For the same compound, the “Crabgrass, Large plant response rating” value [2, 27] was 90, the “Crabgrass, Large plant response rating” value [2, 28] was 40 and the “Foxtail, Giant plant response rating” value [3, 25] was 20. For the same compound, the “Plant response rating, Foxtail, Giant” value [3, 26] was 30, the “Foxtail, Giant plant response rating” value [3, 27] was 50 and the “Foxtail, Giant plant response rating” value [3, 28] was 10. The “Morningglory plant response rating” value [4, 25] was 10, the “Plant response rating, Morningglory” value [4, 26] was 10 and the “Morningglory plant response rating” value [4, 27] was 25. For the same compound, the “Morningglory plant response rating” value [4, 28] was 0, the “Pigweed plant response rating” value [5, 25] was 80 and the “Plant response rating, Pigweed” value [5, 26] was 85. For the same compound, the “Pigweed plant response rating” value [5, 27] was 85, the “Pigweed plant response rating” value [5, 28] was 55 and the “Velvetleaf plant response rating” value [6, 25] was 15. The “Plant response rating, Velvetleaf” value [6, 26] was 25, the “Velvetleaf plant response rating” value [6, 27] was 50 and the “Velvetleaf plant response rating” value [6, 28] was 5. The “Plant response rating, Barnyardgrass” value [7, 29] was 50, the “Barnyardgrass plant response rating” value ([7]; 125 g ai/ha) was 20 and the “Barnyardgrass plant response rating” value ([7]; 500 g ai/ha) was 40. For the same compound, the “Plant response rating, Barnyardgrass” value [7, 30] was 40, the “Plant response rating, Surinam Grass” value [8, 29] was 30 and the “Surinam Grass plant response rating” value ([8]; 125 g ai/ha) was 30. For the same compound, the “Surinam Grass plant response rating” value ([8]; 500 g ai/ha) was 40, the “Plant response rating, Surinam Grass” value [8, 30] was 10 and the “Plant response rating, Cocklebur” value [9, 29] was 0. For the same compound, the “Cocklebur plant response rating” value ([9]; 125 g ai/ha) was 40, the “Cocklebur plant response rating” value ([9]; 500 g ai/ha) was 90 and the “Plant response rating, Cocklebur” value [9, 30] was 0. For the same compound, the “Plant response rating, Corn” value [10, 29] was 0, the “Corn plant response rating” value ([10]; 125 g ai/ha) was 20 and the “Corn plant response rating” value ([10]; 500 g ai/ha) was 30. The “Plant response rating, Corn” value [10, 30] was 0, the “Plant response rating, Crabgrass, Large” value [11, 29] was 90 and the “Crabgrass, Large plant response rating” value ([11]; 125 g ai/ha) was 20. For the same compound, the “Crabgrass, Large plant response rating” value ([11]; 500 g ai/ha) was 30, the “Plant response rating, Crabgrass, Large” value [11, 30] was 50 and the “Plant response rating, Foxtail, Giant” value [12, 29] was 20. For the same compound, the “Foxtail, Giant plant response rating” value ([12]; 125 g ai/ha) was 30, the “Foxtail, Giant plant response rating” value ([12]; 500 g ai/ha) was 40 and the “Plant response rating, Foxtail, Giant” value [12, 30] was 10. The “Plant response rating, Lambsquarters” value [13, 29] was 100, the “Lambsquarters plant response rating” value ([13]; 125 g ai/ha) was 70 and the “Lambsquarters plant response rating” value ([13]; 500 g ai/ha) was 80. For the same compound, the “Plant response rating, Lambsquarters” value [13, 30] was 30, the “Morningglory plant response rating” value ([14]; 125 g ai/ha) was 30 and the “Morningglory plant response rating” value ([14]; 500 g ai/ha) was 50. For the same compound, the “Plant response rating, Morningglory” value ([14]; preemergence, 125 g ai/ha, 0 to 100 scale, 0 is no effect, 100 is complete control) was 10, the “Plant response rating, Pigweed” value [15, 29] was 100 and the “Pigweed plant response rating” value ([15]; 125 g ai/ha) was 80. For the same compound, the “Pigweed plant response rating” value ([15]; 500 g ai/ha) was 90, the “Plant response rating, Pigweed” value [15, 30] was 60 and the “Plant response rating, Rice” value [16] was 30. The “Plant response rating, Velvetleaf” value [17, 29] was 50, the “Velvetleaf plant response rating” value ([17]; 125 g ai/ha) was 20 and the “Velvetleaf plant response rating” value ([17]; 500 g ai/ha) was 30. For the same compound, the “Plant response rating, Velvetleaf” value [17, 30] was 30, the “Blackgrass plant response rating” value ([18]; 125 g ai/ha) was 0 and the “Blackgrass plant response rating” value ([18]; 500 g ai/ha) was 0. For the same compound, the “Wheat plant response rating” value ([19]; 125 g ai/ha) was 20, the “Wheat plant response rating” value ([19]; 500 g ai/ha) was 20 and the “Oat, Wild plant response rating” value ([20]; 125 g ai/ha) was 20. The “Oat, Wild plant response rating” value ([20]; 500 g ai/ha) was 20, the “Rice plant response rating” value [21] was 60 and the “Sedge, Umbrella plant response rating” value [22] was 70. The “Ducksalad plant response rating” value [23] was 80 and the “Barnyardgrass plant response rating” value [24] was 60.
